Results from patent US20100016228A1, “TRUNCATED BARD1 PROTEIN, AND ITS DIAGNOSTIC AND THERAPEUTIC USES” (Ayanda Biosystems SA, priority 2000, published 2010).
Where two headings read alike, the source gives them in different places. Non-standard residues stand in square brackets, D forms with d. Residues, ends and D or L forms follow the SMILES beside them. Nle = CCCC[C@H](N)C(=O)O

Tests used:
[1] = system: human BARD1 protein (SEQ ID NO:1); test: in vitro cleavage of 35S-labeled human BARD1 by NaB-treated SW48 cell extracts, inhibition by protease inhibitors; assay type: biochemical
Method: (§1) The human BARD1 protein (SEQ ID NO:1), labeled with ^35S-methionine, was transcribed and translated in vitro using the TNT coupled reticulocytes lysate system kit (Promega). 1 μg of plasmid was used in a reaction medium for the transcription and the translation, containing 4 μl of ^35S-methionine (NEN). For the in vitro cleavage, 2 μl of transcription/translation products were incubated with apoptotic or nonapoptotic cell extracts prepared in a DIV buffer (20 mM HEPES. PH 7.5, 10 mM NaCl, 1.5 mM MgCl2, 0.1% SB14, 0.5 mM PMSF) at 37° C. for the period of time indicated. […] Inhibition of the cleavage was evaluated by adding caspase inhibitors or a proteasome inhibitor (lactacystine) (Calbiochem) or the calpain inhibitor I (ALLnL) (Chemicon).
To define the proteolytic activity responsible for the cleavage of hBARD1 (SEQ ID NO:1), various preparations of cell extracts from SW48 cells treated with NAB were tested. It appears that both the nuclear preparations and the mitochondrial preparations were capable of cleaving hBARD1 (SEQ ID NO:1). The supernatant at 13,000×g of the organelle preparation had no effect.

caspases 3, 6 and 8 = test: caspase activity in extracts of NaB-treated SW48 cells (fluorogenic substrates); assay type: cell-based, human; conditions: during NaB treatment of SW48 cells; caspase 3 most active after 6 and 12 hours
Method: For assaying the caspase activity, 10 μg of cell extracts were diluted in 5 μl of DIV buffer:
Acetyl-Asp-Glu-Val-Asp-7-amino-4-methylcoumarin (Ac-DEVD-AMC), acetyl-Val-Glu-Ile-Asp-7-amino-4-methylcoumarin (Ac-VEID-AMC) and […] (Bachem), substrates for caspases 3, 6 and 8, respectively, were added at a final concentration of 50 μM. The cleavage activity was controlled on Fluorolite 1000 (Dynatech laboratories).

SW48 cells = test: NaB treatment of SW48 cells: induction of BARD1 and calpastatin cleavage; assay type: cell-based, human; conditions: SW48 cells treated with NaB
Method: Apoptosis was induced by treatment with sodium butyrate (NaB). The cells at different stages of confluence were treated in complete medium at 37° C. and with 5 mM of NaB (Sigma) for various periods of time. The apoptotic bodies were purified as previously described (Gautier et al., 1999):
as §1
The SW48 cells were arrested in G0 by contact inhibition in 175 cm^2 flasks. After confluencing for 3 days, the cells were split 1:10 in 75 cm^2 flasks at a concentration of 3×10^6 cells per flask. 12, 20, 28, 36 and 44 hours after seeding, the cells were treated with 5 mM of NaB for 24 hours and collected. To determine the cell cycle distribution at each time, the content of each flask was subjected to trypsinization, washed three times in 10 ml of ice-cold PBS, and fixed with 1 ml of ice-cold 70% ethanol, added dropwise, for 16 hours at −20° C. The fixed cells were pelletted, resuspended in 500 μl of PC buffer (96% 0.2M Na2HPO4, 4% 15 0.1M citric acid, pH 7.8) and left at ambient temperature for 30 minutes. They were then washed and resuspended in 500 μl of propidium iodide in a staining solution (PBS, 0.12% Triton X-100, 0.12 mM EDTA, 100 μg/ml RNase A), incubated for 30 minutes at 37° C. and analyzed on a FACScan (flow cytometer) (Beckton Dickinson). […]

PROb tumors = test: vaccination of BDIX rats, then subcutaneous PROb tumor challenge; assay type: in vivo; conditions: three weekly intraplantar injections of 100 μg in complete Freund's adjuvant; PROb cells s.c. two weeks after final immunization; versus control protein (fucosyl transferase)
Method: Two groups of BDIX rats were given three weekly intraplantar injections of 100 μg of F1 fragment (amino acids 460-611) of BARD1 (SEQ ID NO:9) or of a controlled protein (fucosyl transferase) purified under the same conditions as the F1 fragment. The proteins were emulsified in 100 μl of complete Freund's adjuvant. Two weeks after the final immunization, the rat colon tumor cells (PROb, 50×10^3/rat) were injected subcutaneously and the volume of the PROb tumors was estimated.

For CCCC[C@@H](C=O)NC(=O)[C@H](CC(C)C)NC(=O)[C@H](CC(C)C)NC(C)=O [ALLnL, N-acetyl-leu-leu-norleucinal] (Ac-Leu-Leu-[Nle]-aldehyde), the “inhibition of the hydrolysis of hBARD1” value [1] was “inhibited” and the “inhibition of the hydrolysis of hBARD1” value ([1]; dose-dependent manner) was “strongly inhibited”.

In the case of O=C(O)CN(CCOCCOCCN(CC(=O)O)CC(=O)O)CC(=O)O [EGTA], the “inhibition of the hydrolysis of hBARD1” value [1] is reported as “inhibited” and the “inhibition of the hydrolysis of hBARD1” value ([1]; dose-dependent manner) is reported as “strongly inhibited”.

CCCC(=O)[O-].[Na+] [NaB, sodium butyrate] was tested, and the “activities of caspases 3, 6 and 8” value (caspases 3, 6 and 8) was “gradually increased”, the “treatment time after which BARD1 cleavage was virtually complete” value (SW48 cells) was roughly 12 h and the “treatment time after which calpastatin was completely cleaved” value (SW48 cells) was 12 h. For the same molecule, the “treatment time after which the p67 protein appeared” value (SW48 cells) was 4 h.

With CC(=O)N[C@@H](CSC(=O)[C@]1([C@@H](O)C(C)C)NC(=O)[C@H](C)[C@@H]1O)C(=O)O [lactacystine] the “blocking of the proteolysis of hBARD1” value ([1]; even at concentrations of 100 μm) was “does not block”.

With “benzyloxycarbonyl-Asp-Glu-Val-Asp-fluoromethylketone [Z-DEVD-frnk]” the “inhibition of the hydrolysis of hBARD1” value [1] was “no effect”.

In the case of “benzyloxycarbonyl-Val-Ala-Asp-fluoromethylketone [ZVAD-fmk]”, the “inhibition of the hydrolysis of hBARD1” value ([1]; high concentration (100 μM)) is reported as “slightly inhibited”.

“benzyloxycarbonyl-Val-Glu-Ile-Asp-fluoromethyl ketone [Z-VEID-fmk]” was tested, and the “inhibition of the hydrolysis of hBARD1” value [1] was “no effect”.

B1: BARD1 fragment: F1 fragment (amino acids 460-611) of rat BARD1 with N-terminal 6xHis tag, expressed in E. coli (protein, listed as Rattus norvegicus)
chain: SHGHLKIVELLLQHNALVNTTGYHNDSPLHDAAKNGHIDIVKVLLSHGASRNAVNIFGERPVDYTDAENIRSLLLLPEKTDSFSTSQCSVQVNTGQRKSGPLVLIGSGLSSQQQKLLSKLETVLKAKKCAEFDNTVTHVIVPDEEAQSTLKC
modifications: N-terminal 6xHis tag
notes: F1 fragment (amino acids 460-611) of rat BARD1 with N-terminal 6xHis tag, expressed in E. coli
With B1 the “PROb tumor growth (tumor volume)” value (PROb tumors) was “slowing down of tumor growth”.
